# Measured values reported in US4086239A, “Thiazole bis-phosphates and phosphonates, intermediates, and insecticidal compositions and methods” (priority 1977, dated 1978).
# System: Southern House Mosquito [Culex pipiens quinquefasciatus (Say)]
# Assay: Southern house mosquito larvae test
# Type: in vivo
# Details: ppm by weight in aqueous solution; third-instar larvae; mortality after 48 hours
# Method: K. Southern House Mosquito [Culex pipiens quinquefasciatus (Say)]
# Insecticidal activity is determined using third-instar larvae of the mosquito (Culex pipiens quinquefasciatus). Ten larvae are placed in a 6-ounce, number 67 Dixie wax paper cup containing 100 milliliters of an aqueous solution of the test chemical. The treated larvae are stored at 70° F, and 48 hours later the mortality is recorded. The primary screening level for this test is 1 ppm by weight of the test compound in the solution.
# (§1) For a particular insect, each compound was initially tested at the primary screening level. For the two-spotted mite, the testing stopped at this point. Those compounds showing less than 50% kill are represented in the table by the primary screening level preceded by a "greater than" sign. For those showing more than 50% kill, a "less than" sign is used. For all other insects those compounds showing greater than 50% kill at the primary screening level were then tested at successively lower levels, until the level was found at which approximately 50% kill was achieved. This level is listed as the LD50 (50% lethal dose) value in Table III. For those compounds showing approximately 50% kill at the primary screening level, the primary screening level itself is listed as the LD50.
# (§2) In cases where this level was found, the level is reported as the LD50. When the level of 50% kill was not found, the number listed is the highest concentration tested, whether primary screen or higher, preceded by a "greater than" sign to indicate that a higher level than reported must be used to achieve 50% kill.
row,SMILES,"Approximate LD50, MOS (Southern house mosquito)"
1,COP(=S)(OC)SCC(=O)Nc1nc(NC(=O)CSP(=S)(OC)OC)c(-c2ccccc2)s1 [Compound 9],> 1.0 ppm
2,CCOP(=O)(OCC)SCC(=O)Nc1csc(NC(=O)CSP(=O)(OCC)OCC)n1 [Compound 8],> 1.0 ppm

# System: Tobacco Budworm [Heliotis virescens (F.)]
# Assay: Tobacco budworm leaf dip test
# Type: in vivo
# Details: % by weight in solution, larvae, 48 hours plus 5 days if survivors
# Method: (§3) A test solution is prepared by dissolving the test compound in a 50-50 acetone-water solution. A section of a curly dock (Rumex crispus) leaf, aproximately 2.5 centimeters wide and 4 centimeters long, is immersed in the test solution for 2-3 seconds, then placed on a wire screen to dry. The dried leaf is placed in a petri dish containing a moistened piece of filter paper, and infested with 5 second-instar salt-marsh caterpillar larvae. Mortality of the larvae is recorded 48 hours later. If surviving larvae are still present, a piece of synthetic media is added to the dish and the larvae are observed for an additional 5 days in order to detect delayed effects of the test compound. The primary screening level for this test is 0.05% by weight of the test compound in the solution.
# I. Tobacco Budworm [Heliotis virescens (F.)]
# Larvae of the tobacco budworm are used in this test in a procedure identical to that used for salt-marsh caterpillar larvae, except that a Romaine lettace (Latua sativa) leaf section of approximately the same size as the curly dock leaf section is used in place of the latter. The primary screening level for this test is 0.1% by weight of the test compound in the solution.
# as §1
# In cases where this level was found, the level is reported as the LD50. […]
row,SMILES,"Approximate LD50, TBW (tobacco budworm)"
1,CCOP(=O)(OCC)SCC(=O)Nc1csc(NC(=O)CSP(=O)(OCC)OCC)n1 [Compound 8],> .1%

# System: Lygus bug [Lygus hesperus (Knight)]
# Assay: Lygus bug spray insecticide evaluation
# Type: in vivo
# Details: % by weight in acetone-water spray; adults; mortality after 48 hours
# Method: C. Lygus bus [Lygus hesperus (Knight)]
# The test compound is dissolved in a 50-50 acetone-water solution. Two cubic centimeters of the solution are sprayed through a DeVilbiss-type EGA hand spray gun into a circular cardboard cage covered on the bottom with cellophane and the top with tulle netting, containing one string bean pod and 10 adult lygus bugs. Percent mortality is recorded after 48 hours. The primary screening level for this test is 0.5% by weight of the test compound in the acetone-water solution.
# as §1, §2
row,SMILES,"Approximate LD50, LB (Lygus bug)"
1,CCOP(=O)(OCC)SCC(=O)Nc1csc(NC(=O)CSP(=O)(OCC)OCC)n1 [Compound 8],> .05%

# System: Cabbage Looper [Trichoplusia ni (Hubner)]
# Assay: Cabbage looper leaf dip test
# Type: in vivo
# Details: % by weight in solution, larvae, 48 hours plus 5 days if survivors
# Method: as §3
# H. Cabbage Looper [Trichoplusia ni (Hubner)]
# The procedure for cabbage looper larvae is the same as that used for salt-marsh caterpillar larvae, except that a cotyledon of hyzini squash (Calabacita abobrinha) of approximately the same size as the curly dock leaf section is used in place of the latter. The primary screening level for this test is 0.1% by weight of the test compound in the solution.
# as §1, §2
row,SMILES,"Approximate LD50, CL (cabbage looper)"
1,COP(=S)(OC)SCC(=O)Nc1nc(NC(=O)CSP(=S)(OC)OC)c(-c2ccccc2)s1 [Compound 9],> .5%
2,CCOP(=O)(OCC)SCC(=O)Nc1csc(NC(=O)CSP(=O)(OCC)OCC)n1 [Compound 8],> .1%

# System: German Cockroach [Blatella germanica (Linne)]
# Assay: German cockroach spray insecticide evaluation
# Type: in vivo
# Details: % by weight in acetone-water spray; nymphs; mortality after 7 days
# Method: B. German Cockroach [Blatella germanica (Linne)]
# The test compound is diluted in a 50-50 acetone-water solution. Two milliliters of the solution are sprayed through a DeVilbiss type EGA hand spray gun into a circular cardboard cage contaning 10 1-month-old German Cockroach nymphs. The test cage is covered on the bottom with cellophane and the top with tulle netting. Percent mortality is recorded after 7 days. The primary screening level for this test is 0.1% by weight of the test compound in the acetone-water solution.
# as §1, §2
row,SMILES,"Approximate LD50, GR (German cockroach)"
1,CCOP(=O)(OCC)SCC(=O)Nc1csc(NC(=O)CSP(=O)(OCC)OCC)n1 [Compound 8],> .1%

# System: Salt-marsh Caterpillar [Estigmene acrea (Druryl)]
# Assay: Salt-marsh caterpillar leaf dip test
# Type: in vivo
# Details: % by weight in solution, larvae, 48 hours plus 5 days if survivors
# Method: G. Salt-marsh Caterpillar [Estigmene acrea (Druryl)]
# as §3, §1, §2
row,SMILES,"Approximate LD50, SMC (salt-marsh caterpillar)"
1,COP(=S)(OC)SCC(=O)Nc1nc(NC(=O)CSP(=S)(OC)OC)c(-c2ccccc2)s1 [Compound 9],> .05%
2,CCOP(=O)(OCC)SCC(=O)Nc1csc(NC(=O)CSP(=O)(OCC)OCC)n1 [Compound 8],> .05%

# System: Black Bean Aphid [Aphis fabae (Scop.)]
# Assay: Direct spray assay on black bean aphid
# Type: in vivo
# Details: % by weight in acetone-water, mortality after 3 days
# Method: D. Direct Spray Assay on Black Bean Aphid [Aphis fabae (Scop.)]
# A nasturtium plant (Tropaeolum sp.), approximately 5 cm tall, is transplanted into sandy loam soil in a 3-inch clay pot and infested with 25-50 black bean aphids of mixed ages. Twenty-four hours later the plant is sprayed, to the point of runoff, with a 50-50 acetone-water solution of the test chemical. The treated plant is held in the greenhouse and mortality is recorded after 3 days. The primary screening level for this test is 0.05% by weight of the test compound in the acetone-water solution.
# as §1, §2
row,SMILES,"Approximate LD50, BBA (black bean aphid)"
1,COP(=S)(OC)SCC(=O)Nc1nc(NC(=O)CSP(=S)(OC)OC)c(-c2ccccc2)s1 [Compound 9],.2%
2,CCOP(=O)(OCC)SCC(=O)Nc1csc(NC(=O)CSP(=O)(OCC)OCC)n1 [Compound 8],.001%

# System: Green Peach Aphid [Myzus persicae (Sulzer)]
# Assay: Direct spray assay on green peach aphid
# Type: in vivo
# Details: % by weight in acetone-water, mortality after 3 days
# Method: E. Direct Spray Assay on Green Peach Aphid [Myzus persicae (Sulzer)]
# A radish plant (Rhaphanus sativus), approximately 2 cm tall, is transplanted into sandy loam soil in a 3-inch clay pot and infested with 25-50 green peach aphids of mixed ages. Twenty-four hours later the plant is sprayed, to the point of runoff, with a 50-50 acetone-water solution of the test compound. The treated plant is held in a greenhouse and mortality is recorded after 3 days. The primary screening level for this test is 0.05% by weight of the test compound in the acetone-water solution.
# as §1, §2
row,SMILES,"Approximate LD50, GPA (green peach aphid)"
1,COP(=S)(OC)SCC(=O)Nc1nc(NC(=O)CSP(=S)(OC)OC)c(-c2ccccc2)s1 [Compound 9],.15%
2,CCOP(=O)(OCC)SCC(=O)Nc1csc(NC(=O)CSP(=O)(OCC)OCC)n1 [Compound 8],.03%

# System: Black Bean Aphid [Aphis fabae (Scop.)]
# Assay: Systemic assay on black bean aphid
# Type: in vivo
# Details: ppm by weight in soil, mortality after seven days
# Method: F. Systemic Assay on Black Bean Aphid [Aphis fabae (Scop.)]
# The test chemical is diluted in acetone and an aliquot is thoroughly mixed into 500 grams of dry, sandy loam soil. The treated soil is placed in a pint ice cream carton and a nasturtium plant (Tropaeolum sp.) approximately 5 cm tall is transplanted into the carton. The plant is then infested with approximately 25 black bean aphids of mixed ages and placed in the greenhouse. Seven days later mortality is recorded. The primary screening level for this test is 10 ppm by weight of the test compound in the soil.
# as §1, §2
row,SMILES,"Approximate LD50, BAS (bean aphid systemic)"
1,CCOP(=O)(OCC)SCC(=O)Nc1csc(NC(=O)CSP(=O)(OCC)OCC)n1 [Compound 8],> 10 ppm

# System: Two-Spotted Mite [Tetranychus urticae (Koch)]
# Assay: Two-spotted mite plant dip test
# Type: in vivo
# Details: eggs; tested at primary screening level 0.05% only; < means more than 50% kill, > less than 50% kill; 7 days
# Method: J. Two-Spotted Mite [Tetranychus urticae (Koch)]
# A pinto bean plant (Phaseolus sp.), approximately 10 cm tall is transplanted into sandy loam soil in a 3-inch clay pot and infested with two-spotted mites of mixed ages and sexes. Twenty-four hours later the infested plants are inverted and dipped for 2-3 seconds in a 50-50 acetone-water solution of the test compound. The treated plant is held in a greenhouse for 7 days. Mortality is then determined for both the adult mites and the nynmphs hatching from eggs which were on the plants at the time of treatment. The primary screening level for this test is 0.05% by weight of the test compound in the acetone-water solution.
# as §1
row,SMILES,"Approximate LD50, 2SM (two-spotted mite) (2) eggs"
1,COP(=S)(OC)SCC(=O)Nc1nc(NC(=O)CSP(=S)(OC)OC)c(-c2ccccc2)s1 [Compound 9],< .05%
2,CCOP(=O)(OCC)SCC(=O)Nc1csc(NC(=O)CSP(=O)(OCC)OCC)n1 [Compound 8],< .05%

# Same assay, conditions: post-embryonic; tested at primary screening level 0.05% only; < means more than 50% kill, > less than 50% kill; 7 days
row,SMILES,"Approximate LD50, 2SM (two-spotted mite) (1) post-embryonic"
1,COP(=S)(OC)SCC(=O)Nc1nc(NC(=O)CSP(=S)(OC)OC)c(-c2ccccc2)s1 [Compound 9],> .05%
2,CCOP(=O)(OCC)SCC(=O)Nc1csc(NC(=O)CSP(=O)(OCC)OCC)n1 [Compound 8],< .05%

# System: Housefly [Musca domestica (L.)]
# Assay: Housefly insecticide evaluation
# Type: in vivo
# Details: per 25 female houseflies; mortality after 48 hours
# Method: A. Housefly [Musca domestica (L.) ]
# The test compound is diluted in acetone and an aliquot is pipetted onto the bottom of a 55 × 15 mm aluminum dish. To insure even spreading on the bottom of the dish, 1 ml of acetone containing 0.02% peanut oil is added. After all the solvent has evaporated, the dish is placed in a circular cardboard cage containing 25 1-day-old female houseflies. The cage is covered on the bottom with cellophane and the top with tulle netting, and contains a sugar-water saturated cotton plug for maintenance of the flies. Mortality is recorded after 48 hours. The primary screening level for this test is 100 micrograms of the test compound per 25 female houseflies.
# as §1, §2
row,SMILES,"Approximate LD50, HF (housefly)"
1,COP(=S)(OC)SCC(=O)Nc1nc(NC(=O)CSP(=S)(OC)OC)c(-c2ccccc2)s1 [Compound 9],> 100 µg
2,CCOP(=O)(OCC)SCC(=O)Nc1csc(NC(=O)CSP(=O)(OCC)OCC)n1 [Compound 8],> 100 µg
